Laboratory results from patent US20100119599A1 (ARCHER PHARMACEUTICALS, INC., priority 2006, published 2010).

How the values were obtained:
[1] = system: Aβ1-40; experiment: Measurement of Aβ1-40 in culture medium of 7W WT APP751 CHO cells by ELISA; format: cell-based, Chinese hamster; conditions: for activity at 5 µM: Cricetulus griseus, Table 1, 5 μM test compound, CHO cells stably transfected with human APP751, culture medium, ELISA, control DMSO, 0 = no detectable amount; for Aβ1-40 (% of control): CHO cells that overexpress APP751, zero = below the detection limit of the assay
[2] = system: Aβ1-42; experiment: Measurement of Aβ1-42 in culture medium of 7W WT APP751 CHO cells by ELISA; format: cell-based, Chinese hamster; conditions: for activity at 5 µM: Cricetulus griseus, Table 1, 5 μM test compound, CHO cells stably transfected with human APP751, culture medium, ELISA, control DMSO, 0 = no detectable amount, read-out: Aβ1-42 (% of control); for Aβ1-42 (% of control): CHO cells that overexpress APP751, zero = below the detection limit of the assay
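Further: 5 µM test compound but RI-coded compounds at 10 µM for 24 hours.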

Structure (SMILES): CC1=C(C(=O)OCCOc2ccccc2)C(c2ccccc2Br)C2=C(CCCC2=O)N1 (centres unmarked) [ST052219, 2-phenoxyethyl 4-(2-bromophenyl)-2-methyl-5-oxo-1,4,6,7,8-pentahydroquinoline-3-carboxylate]
- activity at 5 µM [1]: 14%
- activity at 5 µM [2]: 24.7%

Structure (SMILES): CC1=C(C(=O)OC2CCCC2)C(c2cccc(Cl)c2)C2=C(CCCC2=O)N1 (centres unmarked) [ST013156, cyclopentyl 4-(3-chlorophenyl)-2-methyl-5-oxo-1,4,6,7,8-pentahydroquinoline-3-carboxylate]
- activity at 5 µM [1]: 0%
- activity at 5 µM [2]: 13.7%

Structure (SMILES): CC1=C(C(=O)OCCc2ccccc2)C(c2ccccc2OC(C)C)C2=C(CC(C)(C)CC2=O)N1 (centres unmarked) [ST015049, 2-phenylethyl 2,7,7-trimethyl-4-[2-(methylethoxy)phenyl]-5-oxo-1,4,6,7,8-pentahydroquinoline-3-carboxylate]
- activity at 5 µM [1]: 0%
- activity at 5 µM [2]: 62.4%

Structure (SMILES): COc1cc(/C=c2\sc3n(c2=O)C(N)=C(C#N)C(c2ccc(O)c(OC)c2)C=3C#N)ccc1O (centres unmarked) [ST025032, 5-amino-7-(4-hydroxy-3-methoxyphenyl)-2-[(4-hydroxy-3-methoxyphenyl)methylene]-3-oxo-4,7-dihydro-1,3-thiazolidino[3,2-a]pyridine-6,8-dicarbonitrile]
- Aβ1-40 (% of control) [1]: 27.77 % of control
- Aβ1-42 (% of control) [2]: 32.98 % of control

Structure (SMILES): CC1=C(C(=O)OCc2ccccc2)C(c2ccc(N(C)C)cc2)C2=C(CCCC2=O)N1 (centres unmarked) [ST013212, phenylmethyl 4-[4-(dimethylamino)phenyl]-2-methyl-5-oxo-1,4,6,7,8-pentahydroquinoline-3-carboxylate]
- activity at 5 µM [1]: 50.8%
- activity at 5 µM [2]: 93.7%

Structure (SMILES): COc1ccc(C2C(C(=O)OC3CCCCC3)=C(C)NC3=C2C(=O)CCC3)cc1Br (centres unmarked) [ST013429, cyclohexyl 4-(3-bromo-4-methoxyphenyl)-2-methyl-5-oxo-1,4,6,7,8-pentahydroquinoline-3-carboxylate]
- activity at 5 µM [1]: 31.9%
- activity at 5 µM [2]: 45.4%

Structure (SMILES): COC(=O)C1=C(C)NC2=C(C(=O)CC(c3ccc(OC)cc3)C2)C1c1cccc([N+](=O)[O-])c1 (centres unmarked) [ST013333, methyl 7-(4-methoxyphenyl)-2-methyl-4-(3-nitrophenyl)-5-oxo-1,4,6,7,8-pentahydroquinoline-3-carboxylate]
- activity at 5 µM [1]: 48.4%
- activity at 5 µM [2]: 51.6%

Structure (SMILES): COc1ccc(C2CC(=O)C3=C(C2)NC(C)=C(C(=O)OC(C)C)C3c2ccc(OCc3ccccc3)cc2)cc1 (centres unmarked) [ST016961, methylethyl 7-(4-methoxyphenyl)-2-methyl-5-oxo-4-[4-(phenylmethoxy)phenyl]-1,4,6,7,8-pentahydroquinoline-3-carboxylate]
- activity at 5 µM [1]: 41.8%
- activity at 5 µM [2]: 89.5%

Structure (SMILES): CCOCCOC(=O)C1=C(C)NC2=C(C(=O)CCC2)C1c1coc2ccccc2c1=O (centres unmarked) [ST052370, 2-ethoxyethyl 2-methyl-5-oxo-4-(4-oxochromen-3-yl)-1,4,6,7,8-pentahydroquinoline-3-carboxylate]
- activity at 5 µM [1]: 68.6%
- activity at 5 µM [2]: 69.7%

Structure (SMILES): CCOC(=O)C1=C(N)n2c(s/c(=C/c3ccccc3Cl)c2=O)=C(C#N)C1c1ccccc1Cl (centres unmarked) [ST215651, ethyl 5-amino-7-(2-chlorophenyl)-2-[(2-chlorophenyl)methylene]-8-cyano-3-oxo-4,7-dihydro-1,3-thiazolidino[3,2-a]pyridine-6-carboxylate]
- Aβ1-40 (% of control) [1]: 80.92 % of control
- Aβ1-42 (% of control) [2]: 42.3 % of control

Structure (SMILES): CCC(C)OC(=O)C1=C(C)NC2=C(C(=O)CC(c3ccc(Cl)cc3)C2)C1c1ccc(Cl)c(Cl)c1 (centres unmarked) [ST017095, methylpropyl 4-(3,4-dichlorophenyl)-7-(4-chlorophenyl)-2-methyl-5-oxo-1,4,6,7,8-pentahydroquinoline-3-carboxylate]
- activity at 5 µM [1]: 61.3%
- activity at 5 µM [2]: 37.1%

Structure (SMILES): CCc1cccc(NC(=O)CSC2=C(C#N)C(c3sccc3Oc3ccccc3)C(C(=O)Nc3ccccc3)=C(C)N2)c1 (centres unmarked) [RI_81]
- Aβ1-40 (% of control) [1]: 73.6 % of control
- Aβ1-42 (% of control) [2]: 100 % of control

Structure (SMILES): CCc1ccc(C2C(C(=O)OCCOc3ccccc3)=C(C)NC3=C2C(=O)CC(C)(C)C3)cc1 (centres unmarked) [ST014886, 2-phenoxyethyl 4-(4-ethylphenyl)-2,7,7-trimethyl-5-oxo-1,4,6,7,8-pentahydroquinoline-3-carboxylate]
- activity at 5 µM [1]: 21.6%
- activity at 5 µM [2]: 65.1%

Structure (SMILES): COc1cc(C2C(C(=O)OCCc3ccccc3)=C(C)NC3=C2C(=O)CC(C)(C)C3)ccc1O (centres unmarked) [ST015094, 2-phenylethyl 4-(4-hydroxy-3-methoxyphenyl)-2,7,7-trimethyl-5-oxo-1,4,6,7,8-pentahydroquinoline-3-carboxylate]
- activity at 5 µM [1]: 56.3%
- activity at 5 µM [2]: 59.8%

Structure (SMILES): CCOC(=O)C1=CN(c2ccc(F)cc2)C=C(C(=O)OCC)C1c1ccccc1OCC [ST052316, ethyl 5-(ethoxycarbonyl)-4-(2-ethoxyphenyl)-1-(4-fluorophenyl)-1,4-dihydropyridine-3-carboxylate]
- Aβ1-40 (% of control) [1]: 68.09 % of control
- Aβ1-42 (% of control) [2]: 40.03 % of control

Structure (SMILES): COc1ccc(C2C(C(=O)OC3CCCCC3)=C(C)NC3=C2C(=O)CC(C)(C)C3)cc1O (centres unmarked) [ST052325, cyclohexyl 4-(3-hydroxy-4-methoxyphenyl)-2,7,7-trimethyl-5-oxo-1,4,6,7,8-pentahydroquinoline-3-carboxylate]
- activity at 5 µM [1]: 41.7%
- activity at 5 µM [2]: 33%

Structure (SMILES): CC1=C(C(=O)Nc2ccc(Cl)cc2)C(c2cccs2)C(C#N)=C(SCC(=O)Nc2cccc(C)c2)N1 (centres unmarked) [RI_10]
- Aβ1-40 (% of control) [1]: 78.8 % of control
- Aβ1-42 (% of control) [2]: 70.6 % of control

Structure (SMILES): CC1=C(C(=O)OCc2ccccc2)C(c2coc3ccc(Cl)cc3c2=O)C2=C(CCCC2=O)N1 (centres unmarked) [ST052468, phenylmethyl 4-(6-chloro-4-oxochromen-3-yl)-2-methyl-5-oxo-1,4,6,7,8-pentahydroquinoline-3-carboxylate]
- activity at 5 µM [1]: 43.9%
- activity at 5 µM [2]: 31.9%

Structure (SMILES): CCOCCOC(=O)C1=C(C)NC2=C(C(=O)CCC2)C1c1ccc(OC(C)=O)cc1 (centres unmarked) [ST013435, 4-{3-[(2-ethoxyethyl)oxycarbonyl]-2-methyl-5-oxo-4-1,4,6,7,8-pentahydroquinolyl}phenyl acetate]
- activity at 5 µM [1]: 64.7%
- activity at 5 µM [2]: 70.1%

Structure (SMILES): CCCCCOC(=O)C1=C(C)NC2=C(C(=O)CCC2)C1c1ccccc1OCC (centres unmarked) [ST015174, pentyl 4-(2-ethoxyphenyl)-2-methyl-5-oxo-1,4,6,7,8-pentahydroquinoline-3-carboxylate]
- activity at 5 µM [1]: 17.2%
- activity at 5 µM [2]: 0%

Structure (SMILES): CC1=C(C(=O)OCCc2ccccc2)C(c2ccc(N(C)C)cc2)C2=C(CC(C)(C)CC2=O)N1 (centres unmarked) [ST052231, 2-phenylethyl 4-[4-(dimethylamino)phenyl]-2,7,7-trimethyl-5-oxo-1,4,6,7,8-pentahydroquinoline-3-carboxylate]
- activity at 5 µM [1]: 38.8%
- activity at 5 µM [2]: 63.5%

Structure (SMILES): CC1=C(C(=O)OC2CCCCC2)C(c2ccccc2OCc2ccccc2)C2=C(CCCC2=O)N1 (centres unmarked) [ST013271, cyclohexyl 2-methyl-5-oxo-4-[2-(phenylmethoxy)phenyl]-1,4,6,7,8-pentahydroquinoline-3-carboxylate]
- activity at 5 µM [1]: 6.92%
- activity at 5 µM [2]: 39.9%

Structure (SMILES): N#CC1=C(N)n2c(s/c(=C\c3cccs3)c2=O)=C(C#N)C1c1cccs1 (centres unmarked) [RI_98]
- Aβ1-40 (% of control) [1]: 74.6 % of control
- Aβ1-42 (% of control) [2]: 78.2 % of control

Structure (SMILES): CCOC(=O)C1=CN(c2cc(C)ccc2C)C=C(C(=O)OCC)C1c1cccc(OC)c1OC [ST052450, ethyl 4-(2,3-dimethoxyphenyl)-1-(2,5-dimethylphenyl)-5-(ethoxycarbonyl)-1,4-dihydropyridine-3-carboxylate]
- Aβ1-40 (% of control) [1]: 5.249 % of control
- Aβ1-42 (% of control) [2]: 12.04 % of control

Structure (SMILES): CC1=C(C(=O)OC(C)(C)C)C(c2ccc(Cl)cc2)C(C#N)=C(SCC(=O)Nc2cccc(C)c2C)N1 (centres unmarked) [ST050424, tert-butyl 6-{[N-(2,3-dimethylphenyl)carbamoyl]methylthio}-4-(4-chlorophenyl)-5-cyano-2-methyl-1,4-dihydropyridine-3-carboxylate]
- Aβ1-40 (% of control) [1]: 41.21 % of control
- Aβ1-42 (% of control) [2]: 52.29 % of control

Structure (SMILES): CCOC(=O)C1=C(C)NC2=C(C(=O)CCC2)C1c1cc(Br)c(C)s1 (centres unmarked) [ST020910, ethyl 4-(4-bromo-5-methyl(2-thienyl))-2-methyl-5-oxo-1,4,6,7,8-pentahydroquinoline-3-carboxylate]
- activity at 5 µM [1]: 47.3%
- activity at 5 µM [2]: 69.8%

Structure (SMILES): CC1=C(C(=O)OCCOc2ccccc2)C(c2coc3ccc(C)cc3c2=O)C2=C(CCCC2=O)N1 (centres unmarked) [ST052330, 2-phenoxyethyl 2-methyl-4-(6-methyl-4-oxochromen-3-yl)-5-oxo-1,4,6,7,8-pentahydroquinoline-3-carboxylate]
- activity at 5 µM [1]: 42.6%
- activity at 5 µM [2]: 15.5%

Structure (SMILES): COc1ccc(C2C(C#N)=C(N)NC(C(C#N)C#N)=C2C#N)cc1OC (centres unmarked) [ST025482, 6-amino-2-(dicyanomethyl)-4-(3,4-dimethoxyphenyl)-1,4-dihydropyridine-3,5-dicarbonitrile]
- Aβ1-40 (% of control) [1]: 62.83 % of control
- Aβ1-42 (% of control) [2]: 45.1 % of control

Structure (SMILES): CC1=C(C(=O)Nc2ccccc2)C(c2cccs2)C(C#N)=C(SCC(=O)Nc2ccc(C)c(C)c2)N1 (centres unmarked) [ST041706, N-(3,4-dimethylphenyl)-2-[3-cyano-6-methyl-5-(N-phenylcarbamoyl)-4-(2-thienyl) (2-1,4-dihydropyridylthio)]acetamide]
- Aβ1-40 (% of control) [1]: 68.73 % of control
- Aβ1-42 (% of control) [2]: 50.13 % of control

Structure (SMILES): CC1=C(C(=O)Nc2ccccc2)C(c2ccsc2)C(C#N)=C(SCC(=O)Nc2ccc(C(C)(C)C)cc2)N1 (centres unmarked) [RI_64]
- Aβ1-40 (% of control) [1]: 34.1 % of control
- Aβ1-42 (% of control) [2]: 41.3 % of control

Structure (SMILES): COC(=O)C1=C(C)NC2=C(C(=O)CC(C)(C)C2)C1c1ccc(OCc2ccc(Cl)cc2)c(OC)c1 (centres unmarked) [ST028595, methyl 4-{4-[(4-chlorophenyl)methoxy]-3-methoxyphenyl}-2,7,7-trimethyl-5-oxo-1,4,6,7,8-pentahydroquinoline-3-carboxylate]
- activity at 5 µM [1]: 34.4%
- activity at 5 µM [2]: 98.9%
